How the values were obtained:
KV1.1 = KV1.1 (Rattus norvegicus, UniProt P10499); experiment: Selectivity, HiClamp Xenopus laevis heterologous expression system, KV1.1; type: cell-based; settings: at a concentration of the compound's IC50 value for KV1.3
Description: (§1) Ion channels (Kv1.x, Kv2.1, Kv4.2, Kv10.1) were expressed in Xenopus laevis oocytes by linearization of the plasmids and subsequent in vitro transcription using a commercial T7 or SP6 mMESSAGE mMACHINE transcription kit (Ambion, Carlsbad, California, USA). Defolliculated Xenopus oocytes were then injected with 20–50 nL of the cRNA at a concentration of 1 ng/nL using a micro-injector (Drummond Scientific1, Broomall, PA, USA). The oocytes were incubated in a solution containing (in mM): NaCl, 96; KCl, 2; CaCl2, 1.8; MgCl2, 2 and HEPES, 5 (pH 7.5), supplemented with 50 mg/L gentamycin sulfate and 90 mg/L theophylline. After ex vivo translation, the ion channels were correctly inserted in the cell membrane of the oocytes.
(§2) Two-electrode voltage-clamp recordings were performed at room temperature (18–22 °C) using a Geneclamp 500 amplifier (Molecular Devices, San Jose, CA, USA) and pClamp data acquisition (Axon Instruments, Union City, CA, USA) and using an integrated digital TEVC amplifier controlled by HiClamp, an automated Voltage-Clamp Screening System (Multi Channel Systems MCS GmbH, Reutlingen, Germany). Whole-cell currents from oocytes were recorded 1–4 days after injection. The bath solution composition was ND96 (in mM): NaCl, 96; KCl, 2; CaCl2, 1.8; MgCl2, 2 and HEPES, 5 (pH 7.5). Voltage and current electrodes were filled with a 3 M solution of KCl in H2O. Resistances of both electrodes were kept between 0.5 and 1.5 MΩ. The elicited Kv1.x, Kv2.1, Kv4.2 and Kv10.1 currents were filtered at 0.5 kHz and sampled at 2 kHz using a four-pole low-pass Bessel filter. Leak subtraction was performed using a P/4 protocol.
(§3) For the electrophysiological analysis of the compounds, a number of protocols were applied from a holding potential of −90 mV. Currents for Kv1.x, Kv2.1, Kv4.2 and Kv10.1 were evoked by 1 s depolarizing pulses either to 0 mV or to a range of voltage steps between −80 mV and +40 mV. For the analysis of the data, only the inhibition at the 0 mV step was used. The concentration dependency of all compounds was assessed by measuring the current inhibition in the presence of increasing compound concentrations. […] From this stock solution, adequate dilutions with a maximum of 0.5% DMSO were made for testing.
(§4) All electrophysiological data (Figure S1) are presented as means ± S.E.M of n ≥ three independent experiments unless otherwise indicated. All data were analyzed using pClamp Clampfit 10.4 (Molecular Devices, Downingtown, PA, USA), OriginPro 9 (Originlab, Northampton, MA, USA), GraphPad Prism 8 software (GraphPad Software, Inc., San Diego, CA, USA) and DataMining (Multi Channel Systems MCS GmbH, Reutlingen, Germany). The Dunnett test and one-way ANOVA were performed to calculate the significance of the induced inhibition compared to the control.

KV1.3 [1] = biological target: T1, KV1.3 (Homo sapiens, UniProt P22001); experiment: KV1.3 inhibition, manual voltage-clamp on Xenopus laevis oocytes; type: cell-based; settings: for inhibition at 10 µM: manual voltage-clamp on Xenopus laevis oocytes; for IC50: KV1.3, manual voltage-clamp, Xenopus laevis oocytes
Description: (§5) Stage V–VI oocytes were isolated by partial ovariectomy from Xenopus laevis frogs (African clawed frogs). […] After anaesthetizing the frogs by a 15-min submersion in 0.1% tricaine methanesulfonate (amino benzoic acid ethyl ester; Merck, Kenilworth, NJ, USA), pH 7.0, the oocytes were collected. The isolated oocytes were then washed with a 1.5 mg/mL collagenase solution for 2 h to remove the follicle layer.
as §1, with “theophylline.” for “theophylline. After ex vivo translation, the ion channels were correctly inserted in the cell membrane of the oocytes.”
as §2, with “Resistances of both electrodes were kept between 0.5 and 1.5 MΩ.” left out
as §3
(§6) All electrophysiological data (Figure S1) are presented as means ± S.E.M of n ≥ three independent experiments unless otherwise indicated. […] The Dunnett test and one-way ANOVA were performed to calculate the significance of the induced inhibition compared to the control.

KV1.6 = KV1.6 (Homo sapiens, UniProt P17658); experiment: Selectivity, HiClamp Xenopus laevis heterologous expression system, KV1.6; type: cell-based; settings: for IC50: HiClamp, oocytes, NA = no significant inhibition, no IC50 determined; for Effect on KV1.6 channel: at a concentration of the compound's IC50 value for KV1.3
Description: as §1, §2, §3, §4

KV1.3 [2] = biological target: T1, KV1.3; experiment: KV1.3 inhibition, HiClamp on Xenopus laevis oocytes; type: cell-based; settings: Xenopus laevis oocytes (marked * in Table 2)
Description: as §5
as §1, with “theophylline.” for “theophylline. After ex vivo translation, the ion channels were correctly inserted in the cell membrane of the oocytes.”
as §2, with “Resistances of both electrodes were kept between 0.5 and 1.5 MΩ.” left out
as §3, §6

[3] = Turbidimetric solubility assay; type: physicochemical; settings: for solubility: pH 7.4, aqueous buffer, kinetic from dmso stock, phosphate-buffered saline, final 1% DMSO, read-out: Concentration at which compound was soluble (turbidimetric solubility test)
Description: For the phosphate-buffered saline, we dissolved 2.38 g of disodium hydrogen phosphate dodecahydrate, 0.19 g of potassium dihydrogen phosphate, and 8.0 g of sodium chloride in water and diluted it to 1000 mL with the same solvent. Then we adjusted the pH to 7.4. The stock DMSO solutions of the compounds were prepared at concentrations of 50 mM, 20 mM, 10 mM, and 1 mM. The final solutions (500 µM, 200 µM, 100 µM, and 10 µM) were prepared by adding 2 µL of the stock DMSO solution to 198 µL of phosphate-buffered saline. The absorbance (area scan) was measured at 620 nm for sample volume of 200 µL and the appearance of the solutions was checked by visual inspection.

[4] = 10 µM in PBS with 1 % final DMSO
[5] = 100 µM in PBS with 1 % final DMSO
[6] = 200 µM in PBS with 1 % final DMSO
[7] = 500 µM in PBS with 1 % final DMSO

KV1.1, sequence (P10499 whole entry): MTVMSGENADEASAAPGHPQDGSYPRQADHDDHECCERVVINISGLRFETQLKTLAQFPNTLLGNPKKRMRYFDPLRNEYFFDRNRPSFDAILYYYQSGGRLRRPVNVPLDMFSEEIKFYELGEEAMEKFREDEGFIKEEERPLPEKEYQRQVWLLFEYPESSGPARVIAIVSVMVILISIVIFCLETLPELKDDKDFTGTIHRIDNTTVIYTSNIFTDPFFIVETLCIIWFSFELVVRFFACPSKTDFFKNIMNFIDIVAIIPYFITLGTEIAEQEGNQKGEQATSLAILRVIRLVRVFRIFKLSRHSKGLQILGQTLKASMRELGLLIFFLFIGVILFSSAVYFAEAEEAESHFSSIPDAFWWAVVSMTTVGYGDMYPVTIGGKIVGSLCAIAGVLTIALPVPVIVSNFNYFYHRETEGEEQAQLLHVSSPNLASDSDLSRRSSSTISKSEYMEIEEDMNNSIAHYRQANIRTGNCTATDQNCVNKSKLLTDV
KV1.6, sequence (P17658 whole entry): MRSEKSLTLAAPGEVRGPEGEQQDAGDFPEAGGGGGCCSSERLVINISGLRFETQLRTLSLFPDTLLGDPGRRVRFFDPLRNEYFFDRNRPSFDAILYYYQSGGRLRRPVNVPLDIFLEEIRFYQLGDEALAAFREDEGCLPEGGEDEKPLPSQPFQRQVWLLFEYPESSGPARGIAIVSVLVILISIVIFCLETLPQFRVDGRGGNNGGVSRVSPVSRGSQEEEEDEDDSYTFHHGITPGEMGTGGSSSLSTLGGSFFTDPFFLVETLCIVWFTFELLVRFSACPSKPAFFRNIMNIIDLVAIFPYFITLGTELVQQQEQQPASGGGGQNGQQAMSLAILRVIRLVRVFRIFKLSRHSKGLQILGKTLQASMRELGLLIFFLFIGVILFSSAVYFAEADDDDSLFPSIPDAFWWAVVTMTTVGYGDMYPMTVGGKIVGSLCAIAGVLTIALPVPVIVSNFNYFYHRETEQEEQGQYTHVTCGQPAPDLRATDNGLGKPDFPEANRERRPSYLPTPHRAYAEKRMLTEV
T1 sequence (P22001 whole entry): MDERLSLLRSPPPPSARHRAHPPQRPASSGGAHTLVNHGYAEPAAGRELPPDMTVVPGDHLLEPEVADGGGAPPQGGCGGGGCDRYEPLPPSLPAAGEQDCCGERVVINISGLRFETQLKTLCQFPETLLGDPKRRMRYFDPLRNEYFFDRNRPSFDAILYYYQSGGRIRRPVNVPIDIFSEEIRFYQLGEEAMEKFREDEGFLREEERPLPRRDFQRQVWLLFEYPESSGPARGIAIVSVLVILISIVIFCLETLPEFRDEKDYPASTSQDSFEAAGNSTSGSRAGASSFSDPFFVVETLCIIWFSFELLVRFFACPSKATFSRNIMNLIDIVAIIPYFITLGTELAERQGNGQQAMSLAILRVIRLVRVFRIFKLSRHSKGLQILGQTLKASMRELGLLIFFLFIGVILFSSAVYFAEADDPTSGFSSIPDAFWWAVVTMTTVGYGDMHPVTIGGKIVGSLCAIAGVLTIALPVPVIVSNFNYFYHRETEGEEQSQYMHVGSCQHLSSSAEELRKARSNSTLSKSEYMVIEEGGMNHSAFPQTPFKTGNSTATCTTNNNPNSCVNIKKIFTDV

With COc1ccc(F)cc1C(=O)NCC1(c2ccccc2)CCOCC1 [Compound 37] the “Effect on KV1.1 channel” value (KV1.1) was “significantly inhibited”, the inhibition at 10 µM (KV1.3 [1]) was 94 ± 1% and the IC50 (KV1.3 [1]) was 3960 ± 470 nM. For the same compound, the IC50 (KV1.6) was 4330 ± 1210 nM, the “Effect on KV1.6 channel” value (KV1.6) was “significantly inhibited” and the IC50 (KV1.3 [2]) was 1970 nM. The “absorbance at 620 nm” value [3, 4] was 0, the “absorbance at 620 nm” value [3, 5] was 0,003 and the “absorbance at 620 nm” value [3, 6] was 0,005. The “absorbance at 620 nm” value [3, 7] was 0,077 and the solubility [3] was ≥ 200 µM.
In the case of COc1ccccc1C(=O)NCC1(c2cccs2)CCOC1 (centres unmarked) [Compound 14], the “Effect on KV1.1 channel” value (KV1.1) is reported as “significant effects”, the inhibition at 10 µM (KV1.3 [1]) is reported as 92 ± 4% and the IC50 (KV1.3 [1]) is reported as 570 nM. The IC50 (KV1.6) was 430 ± 20 nM, the “Effect on KV1.6 channel” value (KV1.6) was “significant effects” and the IC50 (KV1.3 [2]) was 1030 ± 30 nM.
In the case of COc1ccccc1C(=O)NCC1(c2cccs2)CCOCC1 [Compound 43], the “Effect on KV1.1 channel” value (KV1.1) is reported as “significant effects”, the inhibition at 10 µM (KV1.3 [1]) is reported as 92 ± 1% and the IC50 (KV1.3 [1]) is reported as 590 nM. The IC50 (KV1.6) was 830 ± 10 nM, the “Effect on KV1.6 channel” value (KV1.6) was “significant effects” and the IC50 (KV1.3 [2]) was 1200 ± 20 nM. The “absorbance at 620 nm” value [3, 4] was 0,01, the “absorbance at 620 nm” value [3, 5] was 0,002 and the “absorbance at 620 nm” value [3, 6] was 0,003. The “absorbance at 620 nm” value [3, 7] was 0,011 and the solubility [3] was ≥ 500 µM.
With COc1ccccc1C(=O)NCC1(c2ccsc2)CCOCC1 [Compound 44] the “Effect on KV1.1 channel” value (KV1.1) was “no significant effects”, the inhibition at 10 µM (KV1.3 [1]) was 96 ± 1% and the IC50 (KV1.3 [1]) was 470 nM. For the same compound, the “Effect on KV1.6 channel” value (KV1.6) was “no significant effects”, the IC50 (KV1.3 [2]) was 1990 ± 610 nM and the “absorbance at 620 nm” value [3, 4] was 0. The “absorbance at 620 nm” value [3, 5] was 0,003, the “absorbance at 620 nm” value [3, 6] was 0,003 and the “absorbance at 620 nm” value [3, 7] was 0,014. For the same compound, the solubility [3] was ≥ 500 µM.

Reference: publication PMC9179341, “Design of New Potent and Selective Thiophene-Based KV1.3 Inhibitors and Their Potential for Anticancer Activity” (Cancers, 2022)
